Measured values reported in patent US12502391B2, “Multi-kinase inhibitors of VEGF and TGF beta and uses thereof” (AIVIVA BIOPHARMA, INC., priority 2018, dated 2025).
Read-outs that look alike come from different tables or passages of the source.

Key:
[1] = system: benign prostate hyperplasia; assay: Testosterone and phenylephrine induced benign prostate hyperplasia in rats; type: in vivo, Wistar rats; parameters: key to epithelial hyperplasia score, dorsolateral prostate, representative image / epithelial hyperplasia score, ventral prostate, representative image: severity grade 0 = not present to 5 = severe; settings: TE and PE induced rats; for epithelial hyperplasia score, dorsolateral prostate, representative image / epithelial hyperplasia score, ventral prostate, representative image: intra-prostate injection 0.4 ml on days 1 and 18 (1% w/w; doxazosin mesylate 0.5%), severity grade 0 (not present) through 5 (severe), induced vehicle score=4; for glandular hyperplasia compared to untreated TE/PE induced prostates: intra-prostate injection on days 1 and 18
Method: BPH is a true hyperplastic process. Histologic studies have documented an increase in cell number. A study was conducted, therefore, to determine the effects of test compounds and vehicle on testosterone (TE) and phenylephrine (PE) induced benign prostate hyperplasia in rats. Male Wistar rats were induced with testosterone (2 mg/kg) plus phenylephrine (5 mg/kg) administered daily by subcutaneous injection on days 5 through 32. Vehicle or test compounds (all at 1% w/w), nintedanib, sunitinib, lenvatinib, and 0.5% doxazosin mesylate, were administered by intra-prostate injection (0.4 ml) in dorsolateral and ventral lobes on days 1 and 18. Animals were euthanized on day 32. Body weights were determined and prostate glands were harvested. The experimental design is outlined in Table 6.
At necropsy, the ventral and dorsolateral lobes of the prostate were separated and then cut into halves. The left halves were fixed in 10% neutral buffered formalin, sectioned, and stained with Hematoxylin and Eosin (H&E). Histological changes in these sections were scored. Epithelial hyperplasia was recognized as an increase in epithelial cells within normal-appearing gland profiles, primarily reflected by stratification of epithelial cells and increased presence of epithelial tufting and papillary projections. A severity grade of 0 (not present) through 5 (severe) was assigned to each sample.

[2] = system: subconjunctival scarring; assay: Bleb survival after glaucoma filtration surgery in rabbit eyes; type: in vivo, rabbits
Method: In order to investigate the anti-scarring effect of topically applied test compounds following ocular surgeries, glaucoma filtration surgery was performed on rabbit eyes. Postoperative subconjunctival wound healing is a major cause of late bleb failure after glaucoma filtration surgery in humans. Select multikinase inhibitors were tested for effect on bleb survival over time. Inhibition of subconjunctival fibrosis following surgery will improve bleb survival. Vehicle was used as a negative control and pirfenidone was used a positive control.
A scleral tract was created in the left eyes superiorally by tunneling a beveled 22-gauge intravenous cannula through the sclera, beginning behind the limbus and continuing until the cannula is visible in the anterior chamber. The cannula was flushed with sodium heparin (1000 units) prior to placement. The cannula needle was withdrawn and the cannula advanced beyond the pupillary margin to prevent iris blockage of the tube. The cannula was trimmed approximately 2 mm and secured to the sclera using suture. Both the Tenon's and the conjunctiva were sutured with 9-0 Prolene. Six rabbits were used per group and the left eye of each rabbit underwent glaucoma filtration surgery. The treatment groups include vehicle control, pirfenidone (1%, w/v) as a positive control, sorafenib (0.3%, w/v), and lenvatinib (0.3%, w/v). Eyedrops (35 uL) were topically applied to the eyes following surgery three times day for 30 days. All animals were sacrificed on Day 30.
Bleb was monitored throughout the study. Bleb volumes were measured with the use of calibrated calipers. […] There were differences noted between groups at Day 7, and the majority of blebs were gone by Day 14 through Day 30 indicating bleb failure due to subconjunctival scarring. Results of the vehicle and pirfenidone groups were similar to those reported in the literature (Zhong H et al., Invest Ophthalmol Vis Sci, 52: 3136-3142, 2011).

[3] = Ocular tissue and plasma distribution after topical ocular instillation (LC-MS/MS); type: in vivo, New Zealand White rabbits; settings: male, New Zealand White, rabbit
Method: The objective of this study was to assess the local tolerance and ocular distribution of sorafenib and lenvatinib (0.3% w/w) when administered by topical ocular instillation in the eyes. Five to six male New Zealand White rabbits were used per treatment group. Each right eye received a 35 μL eyedrop of the vehicle, sorafenib (0.3% w/w), or lenvatinib (0.3% w/w) three times daily for 5 days. On Dosing Day 5, the animals were sacrificed and eyes were enucleated, and plasma and the ocular tissues were collected. Tissue and plasma concentrations of the compounds were measured by LC-MS/MS.

[4] = system: LL37-induced inflammation; assay: Histopathology (inflammation, CD4+ and CD8+ lymphocyte scores) in LL37-induced dermal inflammation model; type: in vivo; settings: mice, single intradermal injection 1.6 mg, LL-37 challenge, 48 hours
Method: In our study, mice were injected subcutaneously with 40 μl of LL-37 (3.3 mg/mL) to induce inflammatory reactions. Immediately following the LL-37 injection, axitinib, nintedanib, sunitinib, or lenvatinib were individually administered as a single intradermal injection (1.6 mg). LL-37 injection was repeated every 12 hours for a total of 4 injections. Endotoxin-free water and dexamethasone (3 mg/kg by intraperitoneal injection, twice), respectively, were used as negative and positive control groups.
At 48 hours after the initial LL-37 injection, the dorsal skin was photographed, and the severity of skin lesions were scored for redness and measured for areas of involvement.
Mice were then anaesthetized, and tissue samples of lesion sites were excised and fixed for H&E stainings and immunohistochemical analysis. Markers for inflammation (CD4 and CD8) were determined using specific antibodies. TGF beta levels are measured by mRNA expression using qPCR.
The tissue samples were analyzed for inflammation characteristics. Histopathology endpoints included inflammation, and CD4+ and CD8+T-lymphocyte immunostaining. For inflammation scores, tissues were examined histologically and scored for inflammatory cell infiltrate.

[5] = system: rabbit ear hypertrophic scar; assay: Histopathology of rabbit ear wounds (neovascularization, fibrosis, re-epithelization); type: in vivo, New Zealand white rabbits; parameters: key to Total Score, Treated Mean: aggregate of neovascularization, fibrosis, re-epithelization grades; key to Neovascularization score, Treated Mean / Fibrosis/Collagen score, Treated Mean / Re-epithelization score, Treated Mean: five-step severity grade: minimal, mild, moderate, marked, severe; settings: rabbit ear wound, intradermal dosing of 1 wt. %; for Total Score, Treated Mean: aggregation of microscopic findings; for Fibrosis/Collagen score, Treated Mean / Neovascularization score, Treated Mean / Re-epithelization score, Treated Mean: five-step severity grading (minimal to severe)
Method: In New Zealand white rabbits, maintained under a surgical plane of anesthesia, trauma stimulation of the skin on the ventral surface of both ears is initiated on Day 1. Trauma sites are evaluated on Days 8, 15, 22, 29, 36, and 43. On days 15 and 29, each site is dosed with test compounds (e.g., 1% w/w, 100 μl) by intradermal or intralesional injections.
At necropsy, each treatment site was harvested and preserved for hematoxylin and […] and Mason's trichrome stainings. Each lesion was examined histologically and graded for neovascularization, fibrosis and re-epithelization using a five-step/severity grading system (minimal, mild, moderate, marked, and severe). The average total score is an aggregation of these microscopic findings relating to an inflammatory response.

Structure (SMILES): COc1cc2nccc(Oc3ccc(NC(=O)NC4CC4)c(Cl)c3)c2cc1C(N)=O [lenvatinib]
- epithelial hyperplasia score, dorsolateral prostate, representative image [1]: 2
- epithelial hyperplasia score, ventral prostate, representative image [1]: 3
- glandular hyperplasia compared to untreated TE/PE induced prostates [1]: demonstrated reduction of glandular hyperplasia
- bleb survival on Day 7 ([2]; eyedrops 35 uL three times a day, pirfenidone 1% w/v, lenvatinib 0.3% w/v, compared to vehicle and sorafenib groups): kept bleb survival on Day 7
- concentration at 5 day of dosing ([3]; in vivo, Ocular tissue concentration, Aqueous Humor, Mean): 5.49 ng/g
- concentration at 5 day of dosing ([3]; in vivo, Ocular tissue concentration, Choroid, Mean): 38 ng/g
- concentration at 5 day of dosing ([3]; in vivo, Ocular tissue concentration, Conjunctiva, Mean): 300 ng/g
- concentration at 5 day of dosing ([3]; in vivo, Ocular tissue concentration, Cornea, Mean): 178 ng/g
- concentration at 5 day of dosing ([3]; in vivo, Ocular tissue concentration, Iris Ciliary Body, Mean): 18.2 ng/g
- concentration at 5 day of dosing ([3]; in vivo, Ocular tissue concentration, Retina, Mean): 23.5 ng/g
- concentration at 5 day of dosing ([3]; in vivo, Ocular tissue concentration, Sclera, Mean): 49 ng/g
- concentration at 5 day of dosing ([3]; in vivo, Ocular tissue concentration, Vitreous Humor, Mean): 0.619 ng/g
- concentration at 5 day of dosing ([3]; in vivo, plasma concentration, mean (±SD)): 131 ng/mL
- scores of inflammation (inflammatory cell infiltrate), words [4]: prominent reductions

Structure (SMILES): COC(=O)c1ccc2c(c1)NC(=O)/C2=C(\Nc1ccc(N(C)C(=O)CN2CCN(C)CC2)cc1)c1ccccc1 [nintedanib]
- epithelial hyperplasia score, dorsolateral prostate, representative image [1]: 3
- epithelial hyperplasia score, ventral prostate, representative image [1]: 3
- glandular hyperplasia compared to untreated TE/PE induced prostates [1]: demonstrated reduction of glandular hyperplasia
- angiogenesis/neovascularization and fibrosis by histopathology versus untreated wounds (words) [5]: decreased angiogenesis and fibrosis
- average total score of test wounds, fold lower than untreated wounds [5]: about 1.33 fold
- Total Score, Treated Mean [5]: 4.5
- Fibrosis/Collagen score, Treated Mean [5]: 3
- Neovascularization score, Treated Mean [5]: 1
- Re-epithelization score, Treated Mean [5]: 0.5
- angiogenesis/neovascularization and fibrosis by histopathology versus untreated wounds (words) ([5]; listed as Nintedanib): much less neovascularization and about the same fibrosis as untreated wounds
- scores of inflammation (inflammatory cell infiltrate), words [4]: prominent reductions

Structure (SMILES): CNC(=O)c1cc(Oc2ccc(NC(=O)Nc3ccc(Cl)c(C(F)(F)F)c3)cc2)ccn1 [sorafenib]
- bleb failure on Day 14 ([2]; 0.3% w/v eyedrops three times a day, 6 eyes per group): all of the sorafenib treated eyes demonstrated bleb failure
- angiogenesis/neovascularization and fibrosis by histopathology versus untreated wounds (words) [5]: do not show any reduction in angiogenesis
- Total Score, Treated Mean [5]: 5.8
- Fibrosis/Collagen score, Treated Mean [5]: 2.5
- Neovascularization score, Treated Mean [5]: 3
- Re-epithelization score, Treated Mean [5]: 0.3
- angiogenesis/neovascularization and fibrosis by histopathology versus untreated wounds (words) ([5]; listed as Sorafenib): slightly increased neovascularization, and similar or slightly increased fibrosis
- concentration at 5 day of dosing ([3]; aqueous humor, topical, 0.3 % w/w (35 μL eyedrop), rabbit eyes, topical instillation of 0.3% three times daily for five days, N=6, read-out: Ocular tissue concentration, Aqueous Humor, Mean): 0 ng/g
- concentration at 5 day of dosing ([3]; choroid, topical, 0.3 % w/w (35 μL eyedrop), rabbit eyes, topical instillation of 0.3% three times daily for five days, N=6, read-out: Ocular tissue concentration, Choroid, Mean): 8.19 ng/g
- concentration at 5 day of dosing ([3]; conjunctiva, topical, 0.3 % w/w (35 μL eyedrop), rabbit eyes, topical instillation of 0.3% three times daily for five days, N=6, read-out: Ocular tissue concentration, Conjunctiva, Mean): 860 ng/g
- concentration at 5 day of dosing ([3]; cornea, topical, 0.3 % w/w (35 μL eyedrop), rabbit eyes, topical instillation of 0.3% three times daily for five days, N=6, read-out: Ocular tissue concentration, Cornea, Mean): 131 ng/g
- concentration at 5 day of dosing ([3]; iris ciliary body, topical, 0.3 % w/w (35 μL eyedrop), rabbit eyes, topical instillation of 0.3% three times daily for five days, N=6, read-out: Ocular tissue concentration, Iris Ciliary Body, Mean): 3.34 ng/g
- concentration at 5 day of dosing ([3]; plasma, topical, 0.3 % w/w (35 μL eyedrop), 0.3% w/w eyedrop 35 μL three times daily, Day 5 of dosing, read-out: plasma concentration, mean (±SD)): 5.09 ng/mL
- concentration at 5 day of dosing ([3]; retina, topical, 0.3 % w/w (35 μL eyedrop), rabbit eyes, topical instillation of 0.3% three times daily for five days, N=6, read-out: Ocular tissue concentration, Retina, Mean): 17.4 ng/g
- concentration at 5 day of dosing ([3]; sclera, topical, 0.3 % w/w (35 μL eyedrop), rabbit eyes, topical instillation of 0.3% three times daily for five days, N=6, read-out: Ocular tissue concentration, Sclera, Mean): 16.4 ng/g
- concentration at 5 day of dosing ([3]; vitreous humor, topical, 0.3 % w/w (35 μL eyedrop), rabbit eyes, topical instillation of 0.3% three times daily for five days, N=6, read-out: Ocular tissue concentration, Vitreous Humor, Mean): 0.11 ng/g
